“And” between values parts separate entries of the source, which are not always exact repeats. Identical values can stand only once. “Also recorded” adds a separate entry of the source.
Columns and labels:
[1] = Peptide stability in mouse plasma (UPLC); format: in vitro ADME; settings: for Recovered Peptide after 1 h in Mouse Plasma [%]: CD-1 mouse plasma, 37 °C, esters recovered as the corresponding acid
Protocol: (§1) The in vitro stability of peptides was assessed according to a previously described protocol with modifications. Peptides (3 g/L, 49 µL) dissolved in […] (DMSO/TWEEN 80/normal saline (5/5/90, v/v/v) were diluted with pooled mouse dipotassium ethylenediaminetetraacetic acid containing pooled plasma (Innovative Research, Novi, MI, USA) or pooled human cerebrospinal fluid (CSF) (both BioIVT, Westbury, NY, USA) to a total volume of 500 µL. The final peptide concentration was kept constant at 315 µmol/L in all experiments. The mixture was incubated (37 °C, 750 rpm; Thermomixer, Eppendorf AG, Hamburg, Germany) and an aliquot (95 µL) was taken at 0, 5, 15, 60, and 300 min. For peptide quantification, the sample was mixed with aqueous acetonitrile (90%, v/v, 300 µL) containing FA, 0.1% v/v and incubated on ice for 30 min. After two centrifugation steps (21,100× g, 3 min, Sorvall Legend Micro 21R Centrifuge, Thermo Scientific, Waltham, MA, USA), the supernatant (300 µL) was collected, freeze-dried (FreeZone Triad Cascade Benchtop, Labcono, Kansas City, MO, USA), reconstituted in aqueous acetonitrile (4.5%, v/v) containing FA (0.1%, v/v), and stored at −20 °C. Samples were analyzed by ultra-performance liquid chromatography (UPLC).
An ACQUITY UPLC H-Class chromatography system (Waters, Milford, MA, USA) coupled on-line to a photodiode array detector (absorbance recorded at 214 nm, Waters) and to the electrospray ionization source on a mass spectrometer (QDa detector, Waters) operated in the positive ion mode was used. Separation relied on a BEH-C18 column (inner diameter: 1.1 mm; length: 50 mm; particle size: 1.7 µm, Waters) at a flow rate of 0.1 mL/min using a linear aqueous acetonitrile gradient in the presence of FA (0.1%, v/v). Ionization was carried out at a source temperature of 450 °C using a cone voltage of 10 V and a capillary voltage of 1.5 kV. Mass spectra were typically acquired for an m/z range from 50 to 1250 at a sampling rate of 2 points per second. Quantities of the degraded peptides and resulting metabolites were estimated using peak areas of the UV signal at 214 nm relative to the initial peak areas (t = 0). Metabolites were identified using mass spectrometry by detecting the singly charged molecular ions.

human DOR = molecular target: T1, human DOR (Homo sapiens, UniProt P41143); assay: Competitive radioligand ([3H]DADLE) displacement assay at DOR; format: binding; settings: analog at 6 nM
T1 construct: host or cells: COS-1 cells
Protocol: The binding affinity of peptides to the DOR was performed by Eurofins Cerep SA (Celle-Lévescault, France) using a competitive radioligand displacement assay according to a previously described method.

female CD-1 mice [2] = assay: Hot-plate test; format: in vivo, mouse; settings: for Antinociception (AUC0-5h, %MPE·h): s.c. 20 µmol/kg (~13 mg/kg), female CD-1 mice
Protocol: Animal use and procedures were in accordance with the guidelines of The University of British Columbia animal care committee and the Canadian Council for Animal Care (CCAC, Protocol code: A17-0128, approval date: 30 August 2018). Experiments involved adult female CD-1 mice (25–30 g) housed under a 12 h light/dark cycle and had ad libitum access to rodent chow and water. Mice were allowed an acclimatization period of at least one week in the animal facility before experiments. Subcutaneous (s.c.) or intraperitoneal (i.p.) injections of drugs or vehicles were administered to animals at a volume of 10 mL/kg. In the formalin foot assay, each mouse was used once and euthanized immediately upon completion of the experiment due to irreversible tissue damage in the injected paw.
(§2) A commercially available hot-plate analgesia meter consisting of a round aluminum surface with (25 cm diameter) from Harvard Apparatus (Holliston, MA, USA) was used. A day before the experiment mice were acclimatized for 5 min in a transparent Plexiglas cylinder (height, 30 cm; diameter, 25 cm) on the switched-off hot-plate apparatus. Thereafter, the baseline latency of each animal was measured on the hot surface (52.0 ± 0.1 °C, 30 s cut-off time to prevent tissue damage) until a nociceptive response was induced. The animal was immediately removed from the hot surface after licking, lifting, or fluttering of the hind paws was observed. Latency responses after treatment were obtained in the same way. The %MPE for each animal was calculated using this equation: %MPE = (LR − BR)/(MR − BR)100%, where LR, MR, and BR represent measured, maximum (30 s), and baseline (~5 s) response time, respectively. The AUC for each animal was calculated from the %MPE time courses using this equation: AUC = (%MPE(Tp1) + %MPE(Tp2))·(Tp2 − Tp1)/2, where Tp represents the time interval between adjacent time points on the curve. Data were plotted as mean ± SEM.

female CD-1 mice [3] = assay: Respiratory depression assay; format: in vivo, mouse
Protocol: The respiratory rate was assessed in awake mice lightly restrained in a well-ventilated 50 mL falcon tube with a darkened tip. Prior to the drug treatment, each animal was habituated in the tube for 30 min. The falcon tube was secured onto a stand facing lengthwise towards a video camera. […] Animals were recorded at selected time points for 10 min to measure the respiration rate.

female CD-1 mice [4] = assay: Dependence study, Nlx-induced jumps; settings: 8 days, Nlx 4 mg/kg i.p.
Protocol: Two hours after the last injection at 3 PM, mice received an i.p. injection of Nlx (4 mg/kg), after which they were immediately placed in a Plexiglas cylinder (height, 30 cm; diameter, 25 cm). The number of jumps induced by Nlx, defined as simultaneous removal of all four paws from the ground surface, were counted.

female CD-1 mice [5] = assay: Safety test in mice, escalating doses; format: in vivo, mouse
From the text: (§3) Throughout the eight-day duration of experiments investigating the development of physical dependence and tolerance, clinical health scores (CHS) of mice on a 5-point scale (0 normal and 5 highest severity) provided by the University of British Columbia Animal Care Committee were monitored. Scores were given in 5 categories (appearance (grooming, posture), behavior (gait, activity), local injection site skin appearance, neurological signs, and body weight). Based on the guidelines, mice with a score of 5 in any category or a cumulative score of >15, or body weight loss of >20% would be euthanized.
Mice were then monitored for mortality and clinical signs including respiratory activity, body weight, hydration, behavior (self-biting and circling), and pain assessment (Facial Grimace) to determine the maximum tolerated dose.

[6] = Peptide stability in human cerebrospinal fluid (UPLC); format: in vitro ADME; settings: pooled human cerebrospinal fluid, pooled human CSF, read-out: peptide recovered in CSF after 5 h of incubation
Protocol: as §1, with “After two centrifugation steps (21,100× g, 3 min, Sorvall Legend Micro 21R Centrifuge, Thermo Scientific, Waltham, MA, USA), the supernatant (300 µL) was collected, freeze-dried (FreeZone Triad Cascade Benchtop, Labcono, Kansas City, MO, USA), reconstituted in aqueous acetonitrile (4.5%, v/v) containing FA (0.1%, v/v), and stored at −20 °C.” left out
An ACQUITY UPLC H-Class chromatography system (Waters, Milford, MA, USA) coupled on-line to a photodiode array detector (absorbance recorded at 214 nm, Waters) and to the electrospray ionization source on a mass spectrometer (QDa detector, Waters) operated in the positive ion mode was used. […] Quantities of the degraded peptides and resulting metabolites were estimated using peak areas of the UV signal at 214 nm relative to the initial peak areas (t = 0). […]

female CD-1 mice [7] = assay: Tolerance study, hot-plate after repeated dosing; format: in vivo, mouse; settings: multidose tolerance and physical dependence tests, 5-point scale
From the text: as §3
as §2, with “A day before the experiment mice were acclimatized for 5 min in a transparent Plexiglas cylinder (height, 30 cm; diameter, 25 cm) on the switched-off hot-plate apparatus.” left out, “The animal was immediately removed from the hot surface after licking, lifting, or fluttering of the hind paws was observed. Latency responses after treatment were obtained in the same way.” left out, “Data were plotted as mean ± SEM.” left out

[8] = day six of treatment; cited from earlier work
C57BL6 mice = settings: cited from earlier work
female CD-1 mice [9] = assay: Formalin foot assay; format: in vivo, mouse; settings: morphine 10 mg/kg s.c.
Protocol: On the day of the experiment, mice were acclimatized to the experimental setup by putting them in darkened, non-transparent plexiglas cylinders (height, 20 cm; diameter, 9 cm) placed on a glass plane for 2 h. […] After successful injection, mice were immediately placed into cylinders and their behavior was monitored for 1 h. Video cameras (Lorex Technology, Markham, ON, Canada) underneath each animal were used to record the nociceptive responses defined as licking or biting at the formalin injected right paw. The accumulated licking and biting time of each animal was determined and recorded in 5 min bins. The total response time was plotted as early phase 1 from 0 to 5 min, and late phase 2 from 20 to 40 min after formalin injection.

mice = settings: mouse, in vivo; cited from earlier work
plasma = settings: cited from earlier work
[10] = pooled mouse dipotassium ethylenediaminetetraacetic acid containing pooled plasma; settings: 37 °C, up to 300 min
[11] = morphine s.c. 10 mg/kg, hot-plate

T1 sequence (P41143 whole entry): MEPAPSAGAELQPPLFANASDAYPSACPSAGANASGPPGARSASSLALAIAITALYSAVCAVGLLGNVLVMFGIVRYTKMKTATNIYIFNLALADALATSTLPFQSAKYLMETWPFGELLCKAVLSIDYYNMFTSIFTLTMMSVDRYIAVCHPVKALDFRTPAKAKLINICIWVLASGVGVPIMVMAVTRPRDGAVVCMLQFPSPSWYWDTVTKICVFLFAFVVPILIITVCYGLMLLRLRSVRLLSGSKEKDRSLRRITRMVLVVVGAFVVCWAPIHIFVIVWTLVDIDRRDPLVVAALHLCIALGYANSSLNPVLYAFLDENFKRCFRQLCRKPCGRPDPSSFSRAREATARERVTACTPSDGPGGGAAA

## COC(=O)[C@H](CC(C)C)NC(=O)[C@H](Cc1ccccc1)NC(=O)CNC(=O)CNC(=O)[C@H](Cc1ccc(O)cc1)NC(C)=O [KK-14]
[1]
  Recovered Peptide after 1 h in Mouse Plasma [%]: 82 ± 5%

## COC(=O)[C@H](CC(C)C)NC(=O)[C@H](Cc1ccccc1)NC(=O)CNC(=O)CNC(=O)[C@H](Cc1ccc(O)cc1)NC(=O)Cc1ccccc1 [KK-81]
Human DOR
  Relative Binding to DOR Compared to Leu-ENK [%]: 41 ± 25%
[1]
  Recovered Peptide after 1 h in Mouse Plasma [%]: 88 ± 7%

## CCCCCC(=O)N[C@@H](Cc1ccc(O)cc1)C(=O)NCC(=O)NCC(=O)N[C@@H](Cc1ccccc1)C(=O)N[C@@H](CC(C)C)C(=O)OC [KK-93]
Female CD-1 mice [2]; hot-plate
  Antinociception (AUC0-5h, %MPE·h): 51 ± 13 %MPE·h
[1]
  Recovered Peptide after 1 h in Mouse Plasma [%]: 85 ± 7%

## COC(=O)[C@H](CC(C)C)NC(=O)[C@H](Cc1ccccc1)NC(=O)CNC(=O)CNC(=O)[C@H](Cc1ccc(O)cc1)NC(=O)C(C)(C)C [KK-102]
Female CD-1 mice [2]; hot-plate, s.c. ~13 mg/kg
  increase of antinociception AUC compared to Leu-ENK: 8 fold
Female CD-1 mice [2]; hot-plate
  Antinociception (AUC0-5h, %MPE·h): 112 %MPE·h and 112 ± 24 %MPE·h
[1]
  Recovered Peptide after 1 h in Mouse Plasma [%]: 94 ± 5% and 94 ± 3%
[1]; mouse, plasma
  half-life: 2.5 min

## CC(C)C[C@H](NC(=O)[C@H](Cc1ccccc1)NC(=O)CNC(=O)CNC(=O)[C@H](Cc1ccc(O)cc1)NC(=O)C(C)(C)C)C(=O)O [KK-103]
Female CD-1 mice [3]; KK-103 13 mg/kg s.c., 30 to 240 min
  respiration rate versus vehicle: comparable to that of mice treated with vehicle
Female CD-1 mice [4]; KK-103 13 mg/kg twice daily
  physical dependence, Nlx-induced jumps in first 10 min: not a single jump was observed
Female CD-1 mice [5]; s.c. 650 mg/kg
  abnormal behaviors / clinical scores at maximum deliverable dose: did not show any signs of abnormal behaviors
Female CD-1 mice [5]; s.c., limited by solubility
  maximum deliverable dose (safe): 650 mg/kg
[6]
  remaining at 5 h, 315 µmol/L: > 95%
Female CD-1 mice [7]
  clinical health score (CHS): 0
[1]
  Recovered Peptide after 1 h in Mouse Plasma [%]: 93 ± 1%
[1]; mouse plasma in vitro, extrapolated from 5 h incubation
  extrapolated plasma half-life: 37 h
[1]; mouse, pooled mouse K2EDTA plasma, 5 h, plasma, read-out: intact peptide remaining in plasma after 5 h of incubation
  remaining at 5 h, 315 µmol/L: > 90%
[1]; plasma in vitro
  increase of plasma half-life over Leu-ENK: ~ 90 fold and 90 fold

## C=CCCC(=O)N[C@@H](Cc1ccc(O)cc1)C(=O)NCC(=O)NCC(=O)N[C@@H](Cc1ccccc1)C(=O)N[C@@H](CC(C)C)C(=O)OC [KK-105]
[1]
  Recovered Peptide after 1 h in Mouse Plasma [%]: 80 ± 7%

## CCCCCCCC(=O)N[C@@H](Cc1ccc(O)cc1)C(=O)NCC(=O)NCC(=O)N[C@@H](Cc1ccccc1)C(=O)N[C@@H](CC(C)C)C(=O)OC [KK-108]
Female CD-1 mice [2]; hot-plate
  Antinociception (AUC0-5h, %MPE·h): 48 ± 15 %MPE·h
[1]
  Recovered Peptide after 1 h in Mouse Plasma [%]: 73 ± 4%

## COC(=O)[C@H](CC(C)C)NC(=O)[C@H](Cc1ccccc1)NC(=O)CNC(=O)CNC(=O)[C@H](Cc1ccc(O)cc1)NC(=O)C1CCCCC1 [KK-112]
Female CD-1 mice [2]; hot-plate
  Antinociception (AUC0-5h, %MPE·h): 51 ± 10 %MPE·h
[1]
  Recovered Peptide after 1 h in Mouse Plasma [%]: 62 ± 4%

## CC(C)C[C@H](NC(=O)[C@H](Cc1ccccc1)NC(=O)CNC(=O)CNC(=O)[C@@H](N)Cc1ccc(O)cc1)C(=O)O [Leu-ENK, Leu-Enkephalin]
[6]
  remaining at 5 h, 315 µmol/L: > 80%
Female CD-1 mice [2]; hot-plate
  Antinociception (AUC0-5h, %MPE·h): 14 %MPE·h and 14 ± 6 %MPE·h
Female CD-1 mice [2]; s.c. 13 mg/kg, hot-plate
  peak antinociception: ~ 10 %MPE
  time of decline of antinociception to baseline: 1.5 h
  time of peak antinociception post-injection: 1 h
[1]; 5 h, plasma
  intact peptide remaining in plasma after 5 h of incubation: undetectable
[1]
  Recovered Peptide after 1 h in Mouse Plasma [%]: 23 ± 3% and 23 ± 2%

## CN1CC[C@]23c4c5ccc(O)c4O[C@H]2[C@@H](O)C=C[C@H]3[C@H]1C5 [morphine]
Female CD-1 mice [3]; morphine 10 mg/kg s.c., 30 min post-injection
  decrease of respiratory rate compared with vehicle: 56%
Female CD-1 mice [4]; morphine 10 mg/kg twice daily
  physical dependence, Nlx-induced withdrawal: significant withdrawal syndromes
Female CD-1 mice [2]; morphine s.c. 10 mg/kg, 2 h
  antinociception at 2 h: ~ 10 %MPE
Female CD-1 mice [2]; [11]
  maximum antinociception: 87 %MPE
  time to maximum antinociception: ≤ 15 min
[8]
  residual effect of morphine: approximately 30%
C57BL6 mice
  time of peak effect: 20 min
Female CD-1 mice [9]; phase 1 (0–5 min)
  reduction of paw licking and biting time compared to control, phase 1: 30%
Female CD-1 mice [9]; phase 2 (20–40 min)
  nociceptive response, phase 2: completely diminished the nociceptive response
mice
  decrease of breathing rate: 1.7 fold

## H2N-YGGFL-COOH
plasma
  cleaved bond: Tyr-Gly, first_seen; also recorded: Gly-Phe
[10]
  fragment found: H2N-GGFL-COOH, major; also recorded: H2N-FL-COOH, major

Source: paper PMC8308721 (Pharmaceutics, 2021)
